According to patent US5763396A, “Method of treating or preventing type 1 diabetes by oral administration of insulin” (AutoImmune Inc., priority 1995, dated 1998):
Values joined by “and” are separate entries in the source; they are usually repeats but may differ in a detail not shown here. Equal entries are not always repeated. “Also recorded” adds a separate entry of the source.

How the values were obtained:
Type in all cases: in vivo
NOD mice [1] = test: Glucose post oral insulin in fasting 7 week NOD mice (Example 2); settings: for blood glucose over the next 24 hours / blood glucose change after feeding (protein load) / drop in blood glucose after feeding: 1 mg oral; for blood glucose over the next 24 hours: animals in fasting state
Method: In order to determine whether any endocrinologic (i.e. direct lowering of blood sugar) effects occurred following the feeding of insulin, 7 week old NOD mice (5 mice per group) were fed 1 mg of porcine insulin or 1 mg of myelin basic protein (obtained from Pel Freez, Rogers, Ark.) as a control protein. Blood glucose was then measured over the next 24 hour period. As a positive control, a separate group of animals were injected subcutaneously with 20 micrograms of Porcine insulin. All animals were kept in the fasting state.

NOD mice [2] = test: Treatment of initial stages of diabetes in NOD mice (Example 5); settings: oral and aerosol, 0 to 1 mg, hyperglycemic NOD mice
Method: Insulin (0 to 1 mg as in Examples 1 and 2) will be administered to NOD mice which are suffering from hyperglycemia in an oral and aerosol form. The treatments will begin by weeks 12-20 of age, by which the serum glucose levels are at hyperglycemic concentrations in a certain percentage of animals prior to onset of diabetes.

NOD mice [3] = test: Effect of aerosol administration of insulin on diabetes in NOD mice (Example 4); settings: aerosol by nebulizer, 0 to 1 mg
Method: Insulin (0 to 1 mg as in Examples 1 and 2) will be administered to NOD mice as described above in Examples 1 and 2 except in aerosol form by nebulizer.

NOD mice [4] = test: Effect of feeding porcine insulin on spontaneous diabetes in NOD mice (Example 1)
Description: NOD (non-obese diabetic mice) were obtained from Taconic Laboratories (Germantown, Mass.) at 4 weeks of age. There were a total of 30 animals in each of the groups mentioned below at the beginning of the experiment. At […] of age, animals were orally administered Porcine insulin (Novo Laboratories, Danbury, Conn.). Each animal received two treatments orally twice a week until 9 weeks of age. The mice were fed either saline (control) or 10 micrograms, 100 micrograms, or 1 milligram of Porcine insulin. The animals were fed (gavaged) with an 18 gauge ball-point needle (Popper and Sons, Inc., New Hyde Park, N.Y.). Beginning at 10 weeks the animals were then fed once a week for a total of 33 weeks. Beginning at 12 weeks the urine was tested weekly for the presence of glucose using Glucosuria test tape (Eli Lilly, Indianapolis, Ind.). If an animal tested 3+ or higher on the glucose urine test, a serum sample was taken and blood glucose measured using a glucose analyzer (Beckman). If the blood glucose was 220 or higher, the animals were classified as diabetic and then sacrificed.

NOD mice [5] = test: Insulitis in insulin-fed NOD mice (preliminary experiments); settings: fed 1 mg insulin vs PBS-fed NOD mice, data not shown
Description: Therefore, oral administration of insulin to NOD mice appeared to be affecting the infiltration of immune system cells into the pancreas and thus halting disease progression by preserving beta cell function.

[6] = 20 micrograms porcine insulin subcutaneously, fasting 7 week NOD mice

Row | Substance | blood glucose over the next 24 hours (NOD mice [1]) | blood glucose change after feeding (protein load) (NOD mice [1]; fasting 7 week NOD mice) | drop in blood glucose after feeding (NOD mice [1]; fasting 7 week NOD mice) | beta cell function (NOD mice [2]) | serum glucose concentrations (NOD mice [2]) | prevention of manifestation of symptoms (hyperglycemia) of Type 1 diabetes (NOD mice [3]) | development of diabetes (NOD mice [4]; NOD mice fed 1 mg porcine insulin orally, diabetic = blood glucose 220 or higher) | development of diabetes (NOD mice [4]; NOD mice fed 10 micrograms porcine insulin orally) | development of diabetes (NOD mice [4]; NOD mice fed 100 micrograms porcine insulin orally) | incidence of diabetes (NOD mice [4]; all doses of orally administered insulin tested (10 micrograms to 1 mg)) | blood sugar on 10 representative animals (NOD mice [4]; fed 1 mg insulin, none diabetic, individual animals) | blood sugar in animals which developed diabetes (NOD mice [4]; fed 10 micrograms of insulin, individual animals) | blood sugar in animals that became diabetic (NOD mice [4]; fed 100 micrograms of insulin, individual animals) | endocrinologic (metabolic) effects (NOD mice [1]; 1 mg oral insulin, NOD mice) | decrease in the glucose level (NOD mice [1]; [6]) | period over which glucose decrease persisted (NOD mice [1]; [6]) [h] | inflammatory immune system cells surrounding the pancreas (insulitis) (NOD mice [5])
1 | myelin basic protein | gradual decrease in blood glucose | increase in blood glucose | no drop in the blood glucose | – | – | – | – | – | – | – | – | – | – | – | – | – | –
2 | Porcine insulin | gradual decrease in blood glucose | increase in blood glucose | no drop in the blood glucose | preservation of beta cell function | reduction in serum glucose concentrations to near normal levels | effective in preventing the manifestation of symptoms | none of the mice went on to develop diabetes; also recorded: no diabetes developed; also recorded: None of the animals developed diabetes | diabetes developed | diabetes developed | lower incidence of diabetes; also recorded: reduced the numbers of these mice which subsequently went on to develop diabetes | 174 mg/dl and 128 mg/dl and 125 mg/dl (2×) and 145 mg/dl and 123 mg/dl and 136 mg/dl and 155 mg/dl and 115 mg/dl and 130 mg/dl | 330 mg/dL and 420 mg/dL and 315 mg/dL and 459 mg/dL and 520 mg/dL and 487 mg/dL | 500 mg/dL and 290 mg/dL and 600 mg/dL and 450 mg/dL | not a metabolic effect; also recorded: no endocrinologic (metabolic) effects | approximately 80 mg % | 4 | fewer inflammatory immune system cells surrounding the pancreas
